From the NIST ThermoML archive (doi:10.1016/j.tca.2014.04.012)
Numbers after ± are expanded uncertainties.

Details: Crystal; visual observation

| SMILES | Normal melting temperature [°C] |
| --- | --- |
| CCN1C(=O)N(CC)C2NC(=O)NC21 (configuration not stated) | 310.00 ± 2 |
| CN1C(=O)N(C)C2NC(=O)NC21 (configuration not stated) | 260.00 ± 2 |
